From article PMC8600089, “The development of a high-affinity conformation-sensitive antibody mimetic using a biocompatible copolymer carrier (iBody)” (The Journal of Biological Chemistry, 2021)
Like-named read-outs stand apart in the source and are kept apart here. Starred links: 1 amine or outer side, 2 acyl side, 3 side chain; linkers in the order of their positions; H or OH if unused. Positions of bridges follow the written chain, without caps; N, C: chain ends. Residues, ends and D or L forms follow the SMILES beside them. Groups on a side chain read outwards from the residue. *: point of attachment. PEG12 = NCCOCCOCCOCCOCCOCCOCCOCCOCCOCCOCCOCCOCCC(=O)O; Biotin = O=C1N[C@H]2[C@H](CS[C@H]2CCCCC(=O)*)N1; TBMB = c1c(C[*:1])cc(C[*:3])cc1C[*:2]

How the values were obtained:
PSMA (AviPSMA) = PSMA (AviPSMA) (Homo sapiens, UniProt Q04609); test: PSMA activity assay (HPLC, substrate pteroyl-di-L-glutamate); type: biochemical
Sequence of PSMA (AviPSMA) (Q04609 44-750 limits assumed): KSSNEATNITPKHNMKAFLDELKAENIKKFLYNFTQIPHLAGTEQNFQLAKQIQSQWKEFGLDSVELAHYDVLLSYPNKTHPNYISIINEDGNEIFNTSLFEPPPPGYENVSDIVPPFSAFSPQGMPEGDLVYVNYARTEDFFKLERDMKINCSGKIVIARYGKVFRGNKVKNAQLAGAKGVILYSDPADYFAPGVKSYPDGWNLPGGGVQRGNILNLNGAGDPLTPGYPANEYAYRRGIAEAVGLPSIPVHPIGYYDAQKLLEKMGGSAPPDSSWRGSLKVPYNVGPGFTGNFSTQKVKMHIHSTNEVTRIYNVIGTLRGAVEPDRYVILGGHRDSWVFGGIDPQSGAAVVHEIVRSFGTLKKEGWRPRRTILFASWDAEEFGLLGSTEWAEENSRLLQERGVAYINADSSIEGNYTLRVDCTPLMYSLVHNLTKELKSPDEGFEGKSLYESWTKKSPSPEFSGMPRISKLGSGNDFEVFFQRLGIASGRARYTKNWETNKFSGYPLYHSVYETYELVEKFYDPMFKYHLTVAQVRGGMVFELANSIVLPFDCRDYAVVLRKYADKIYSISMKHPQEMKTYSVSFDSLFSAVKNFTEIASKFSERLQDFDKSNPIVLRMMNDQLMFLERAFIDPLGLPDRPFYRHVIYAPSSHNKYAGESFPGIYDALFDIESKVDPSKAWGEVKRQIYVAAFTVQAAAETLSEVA

[1] = biological target: T1, recombinant extracellular part of PSMA (Homo sapiens, UniProt Q04609); test: ELISA with immobilized PSMA
T1 sequence (Q04609 44-750 limits assumed): as above

[2] = biological target: T1, recombinant extracellular part of PSMA; test: Competition ELISA: iBody 1 binding to PSMA versus PSMA inhibitors

Compound: CC(=O)N[C@H]1CSCc2cc3cc(c2)CSC[C@H](NC(=O)[C@H](CCC(=O)O)NC(=O)[C@H](CC(=O)O)NC(=O)[C@H](CC(=O)O)NC1=O)C(=O)N1CCC[C@H]1C(=O)N[C@@H](CC(=O)O)C(=O)N[C@@H](Cc1ccc(O)cc1)C(=O)N[C@@H](C(C)C)C(=O)N[C@H](C(=O)NCC(=O)NCC(=O)N[C@@H](CO)C(=O)NCC(=O)N[C@@H](CCCCNC(=O)CCOCCOCCOCCOCCOCCOCCOCCOCCOCCOCCOCCOCCNC(=O)CCCC[C@@H]1SC[C@@H]2NC(=O)N[C@@H]21)C(N)=O)CSC3 [Peptide 1] (Ac-CDDECPDYVCGGSGK([PEG12-Biotin])-NH2; linker 1-5-10 via TBMB)
- IC50 (PSMA (AviPSMA); cell gives μM under a head in nM, 20-min incubation, 37 °C, n = 3): > 50 µM
- inhibition at 50 µM (PSMA (AviPSMA); in 50μM): 10%
- EC50 [1]: > 5 µM

Compound: poly(HPMA-co-Ma-β-Ala-ATTO488-co-Ma-β-Ala-NH-ED-biotin) [iBody 3, reference compound]
- Ratio: value on layer with PSMA divided by value on layer lacking PSMA ([1]; 8 nM iBody): 0.9
- Ratio: value on layer with PSMA divided by value on layer lacking PSMA ([1]; 40 nM iBody): 1.3
- Ratio: value on layer with PSMA divided by value on layer lacking PSMA ([1]; 200 nM iBody): 1.1
- Ratio: value on layer with PSMA divided by value on layer lacking PSMA ([1]; 1000 nM iBody): 0.8
- Ratio: value on layer with PSMA divided by value on layer lacking PSMA ([1]; 5000 nM iBody): 0.8
- specific binding to immobilized PSMA compared with control layer (in words) ([1]; ELISA, layer with vs without PSMA): no specific binding

Compound: phosphate
- competition with binding of iBody 1 to PSMA on ELISA (in words) ([2]; iBody 1 (5 nM per legend), inhibitor pre-incubated 30 min, then iBody 60 min at RT, representative of >3 experiments, n = 3): outcompeted

Compound: O=C(O)CCC(CP(=O)(O)O)C(=O)O (centres unmarked) [2-PMPA, 2-(phosphonomethyl)pentane-1,5-dioic acid]
- competition with binding of iBody 1 to PSMA on ELISA (in words) [2]: outcompeted
